In US10435388B2, “Selective inhibitors of clinically important mutants of the EGFR tyrosine kinase” (CS PHARMATECH LIMITED, priority 2016, dated 2019):
“And” between values parts separate entries of the source, which are not always exact repeats. Equal values may be shown once. Read-outs that look alike come from different tables or passages of the source.

Tests used:
[1] = system: NCI-H1975 cells (EGFR L858R/T790 double mutant); assay: H1975 inhibition assay (cell proliferation), Method A; assay type: cell-based; conditions: Homo sapiens; cellular proliferation, NCI-H1975 cells, 72 h, CellTiter-Glo (Table 1); read-out: NCI-H1975 IC50 (nM) DM
Method: (§1) Cell Proliferation Assays—Method A
H1975 Inhibition Assay (Cell Proliferation)
(§2) The final concentration was 4,000 cells/well. Add medium only as low control.
(§3) Day-2: Test compounds were dissolved in DMSO at 0.2 mM (200×).
(§4) Day-5: After 72 hours incubation, remove the plates from incubator and equilibrate at room temperature for 15 minutes. Incubate the CellTiter Glo reagents (Promega, G9243) at 37° C. before the experiment. The buffer was equilibrated to room temperature and used to dissolve the substrate. To determine the cell viability, add 30 μL of CellTiter-Glo reagent into each well to be detected. Then shake the plates at room temperature for 10 min and followed by plate read on Envision (PerkinElmer).
(§5) For estimation of IC50, the luminescence readout are transformed to % Inhibition by applying the following equation: The IC50 was then
(§6) [formula] calculated by fitting in XLFit to a four parameters logistic curve.

[2] = system: p-EGFR in H1975 cells (L858R/T790M double mutant EGFR)
[3] = biological target: T1, INSR (Homo sapiens, UniProt P06213); assay: INSR inhibition assay (Caliper EZ Reader); assay type: biochemical; conditions: enzyme assay
T1 construct: purchased CARNA BIOSCIENCE 08-142
Method: (§7) Test compound was dissolved in DMSO at 30 mM. […] 20 nL of these compounds DMSO dilutes were dispensed into a new 384-well assay plate by Echo 550. […] 15 uL of kinase assay buffer containing INSR protein and substrate was transferred to assay plate and incubate at RT for 30 minutes. Kinase assay buffer supplemented with substrate peptides was employed as low control to monitor the background. 40 LM ATP was prepared in kinase assay buffer containing and 5 μL of ATP solution was added to each well to start the reaction. The assay plate was incubated at 25° C. for 180 minutes and the reaction was stopped by adding 40 μL of 0.5 M EDTA.
The result is analyzed in the same manner of […].

[4] = system: LoVo cells (unmutated EGFR wild type); assay: LoVo growth inhibition assay (cell proliferation), Method A; assay type: cell-based; conditions: Homo sapiens, cellular proliferation, 72 h, CellTiter-Glo (Table 1), read-out: LoVo IC50 (nM) WT
Method: as §1
LoVo Growth Inhibition Assay (Cell Proliferation)
The rest of the procedure was carried out in the same manner as described for the H1975 cells.

[5] = system: p-EGFR in PC9 cells (Exon 19 deletion EGFR); assay: Exon19 deletion EGFR (activating single mutant) PC-9 cellular autophosphorylation assay; assay type: cell-based, human; conditions: 2 h treatment, ELISA
Method: Cellular EGFR Autophosphorylation Assays.
The human lung cell line PC9 (Exon 19 deletion EGFR) is obtained from the American type Culture Collection. […] Cells are grown in a humidified incubator at 37° C. with 5% CO2, Assays to measure cellular phosphorylation of endogenous p-EGFR in cell Iysates are carried out according to the protocol described in the R&D Systems DuoSet IC Human Phospho-EGF R ELISA (R&D Systems catalogue number #DYCI095). 40 μL of cells are seeded (10000 cells/well) in growth medium in Corning black, clear-bottomed 384-well plates and incubated at 37° C., with 5%0/CO2 overnight. […] Plates are incubated for a further 2 h, then following aspiration of medium, 40 μL×lysis buffer is added to each well. Greiner black high bind 384 well plates are coated with capture antibody and then blocked with 3% BSA. Following removal of block, 15 μL of lysate are transferred to the Greiner black high bind 384 well plates and incubated for 2 hours. Following aspiration and washing of the plates with PBS, 20 μL of detection antibody are added and incubated for 2 hours. […] The data obtained with each compound are exported into a suitable software package (such as Origin) to perform curve fitting analysis.

[6] = biological target: T2, IGF-1R (Homo sapiens, UniProt P08069); assay: IGF-1R inhibition assay (Caliper EZ Reader); assay type: biochemical; conditions: enzyme assay
T2 construct: purchased CARNA BIOSCIENCE 08-141
T2 sequence (P08069 959-1367 limits assumed): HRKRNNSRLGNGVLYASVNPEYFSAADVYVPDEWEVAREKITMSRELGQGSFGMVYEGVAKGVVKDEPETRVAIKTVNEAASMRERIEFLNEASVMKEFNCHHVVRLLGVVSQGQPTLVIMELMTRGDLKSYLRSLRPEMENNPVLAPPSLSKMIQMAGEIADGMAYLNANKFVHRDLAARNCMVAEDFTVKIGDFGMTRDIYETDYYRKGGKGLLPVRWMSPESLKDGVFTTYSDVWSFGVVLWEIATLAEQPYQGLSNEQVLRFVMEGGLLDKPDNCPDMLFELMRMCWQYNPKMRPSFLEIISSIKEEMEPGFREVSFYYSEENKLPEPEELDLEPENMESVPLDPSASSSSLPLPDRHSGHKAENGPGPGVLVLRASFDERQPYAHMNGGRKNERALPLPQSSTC
Method: as §7, with “IGF-1R” for “INSR”, “μM” for “LM”
Phosphorylated fluorescent-tagged peptides were differentiated from non-phosphorylated peptides by separating using Caliper EZ Reader II and the detection was directly converted to conversion ratio.

[7] = system: PC9 cells (EGFR d746-750 single mutant); assay: PC-9 growth inhibition assay (cell proliferation), Method A; assay type: cell-based, human; conditions: Homo sapiens, PC-9; cellular proliferation, PC9 cells, 72 h, CellTiter-Glo (Table 1); read-out: PC9 IC50 (nM) SM
Method: as §1, §2, §3, §4, §5, §6
PC-9 Growth Inhibition Assay (Cell Proliferation)
The inhibition assay for PC-9 cells was processed in the same manner as described for the H1975 cells.

[8] = biological target: EGFR_d746-750 (Homo sapiens, UniProt P00533, DEL746-750); assay: Enzyme assay, IC50 for single mutant EGFR_d746-750 (Caliper); assay type: biochemical; conditions: enzyme phosphorylation assay
EGFR_d746-750, sequence (P00533 with tags, fused parts or gaps DEL746-750): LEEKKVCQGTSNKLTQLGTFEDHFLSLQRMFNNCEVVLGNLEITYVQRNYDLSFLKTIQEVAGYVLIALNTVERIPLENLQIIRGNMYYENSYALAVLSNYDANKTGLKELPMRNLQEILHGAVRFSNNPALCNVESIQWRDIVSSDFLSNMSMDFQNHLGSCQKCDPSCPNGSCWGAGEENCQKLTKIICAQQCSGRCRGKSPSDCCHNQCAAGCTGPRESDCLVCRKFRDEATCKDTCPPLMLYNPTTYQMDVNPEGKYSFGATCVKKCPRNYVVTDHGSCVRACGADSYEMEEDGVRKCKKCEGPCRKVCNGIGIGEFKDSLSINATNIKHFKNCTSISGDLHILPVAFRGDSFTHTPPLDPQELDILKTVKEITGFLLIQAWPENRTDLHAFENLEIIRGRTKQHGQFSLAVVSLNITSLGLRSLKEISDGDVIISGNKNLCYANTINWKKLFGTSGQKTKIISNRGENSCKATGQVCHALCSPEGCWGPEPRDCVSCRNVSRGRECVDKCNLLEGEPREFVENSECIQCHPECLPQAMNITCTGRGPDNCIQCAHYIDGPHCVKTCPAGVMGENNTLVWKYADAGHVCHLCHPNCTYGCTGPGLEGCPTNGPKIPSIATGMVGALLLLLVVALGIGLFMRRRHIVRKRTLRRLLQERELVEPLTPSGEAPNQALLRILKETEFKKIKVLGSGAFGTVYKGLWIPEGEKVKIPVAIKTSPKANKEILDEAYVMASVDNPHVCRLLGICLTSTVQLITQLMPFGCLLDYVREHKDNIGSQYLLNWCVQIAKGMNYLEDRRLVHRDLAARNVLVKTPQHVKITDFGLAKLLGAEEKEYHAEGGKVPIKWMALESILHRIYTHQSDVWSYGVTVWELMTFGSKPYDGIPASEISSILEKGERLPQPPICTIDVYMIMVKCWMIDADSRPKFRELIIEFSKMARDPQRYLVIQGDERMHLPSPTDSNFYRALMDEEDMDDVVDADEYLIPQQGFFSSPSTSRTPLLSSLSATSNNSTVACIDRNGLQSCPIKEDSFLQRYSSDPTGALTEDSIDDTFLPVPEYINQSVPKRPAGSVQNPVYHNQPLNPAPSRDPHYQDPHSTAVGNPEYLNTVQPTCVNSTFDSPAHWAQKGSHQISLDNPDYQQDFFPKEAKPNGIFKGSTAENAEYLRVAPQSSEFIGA
Method: (§8) Using the same technique as described in the previous paragraph, various mutated forms of the epidermal growth factor receptor may be isolated from appropriate cell lines which contain them. For example, the EGFR de1746-750 mutant protein may be extracted from PC-9 cells, and the L858R/T790M double mutant EGFR protein may be isolated from H1975 cells.
Determination of IC50 Values for Single Mutant EGFR_d746-750
Dilute all compounds to 500 μM stock solutions in 100% DMSO and make a serial of 4-fold dilution for 10 doses. “Max” and “Min” control contain 100% DMSO. “Max” stands for […], “Min” stands for low control without compounds. Transfer 10 μl of compounds to 90 μl of 1× kinase base buffer to make intermediate dilution. […] Incubate at RT for 1 hr and 25 μl stop buffer to end up reaction. Collect conversion data from Caliper and conversion data from Caliper program. Fit the data in XLfit to obtain IC50 values.

[9] = biological target: T3, Wt EGFR (Homo sapiens, UniProt P00533); assay: Enzyme assay, IC50 for wt EGFR (Caliper); assay type: biochemical; conditions: enzyme phosphorylation assay; read-out: EGFR_WT IC50
T3 construct: isolated from A431 human epidermoid carcinoma cells which overexpress EGF receptor; endogenous in cells; host or cells: A431 human epidermoid carcinoma cells (receptor purified on wheat germ agglutinin sepharose)
T3 sequence (P00533 25-1210): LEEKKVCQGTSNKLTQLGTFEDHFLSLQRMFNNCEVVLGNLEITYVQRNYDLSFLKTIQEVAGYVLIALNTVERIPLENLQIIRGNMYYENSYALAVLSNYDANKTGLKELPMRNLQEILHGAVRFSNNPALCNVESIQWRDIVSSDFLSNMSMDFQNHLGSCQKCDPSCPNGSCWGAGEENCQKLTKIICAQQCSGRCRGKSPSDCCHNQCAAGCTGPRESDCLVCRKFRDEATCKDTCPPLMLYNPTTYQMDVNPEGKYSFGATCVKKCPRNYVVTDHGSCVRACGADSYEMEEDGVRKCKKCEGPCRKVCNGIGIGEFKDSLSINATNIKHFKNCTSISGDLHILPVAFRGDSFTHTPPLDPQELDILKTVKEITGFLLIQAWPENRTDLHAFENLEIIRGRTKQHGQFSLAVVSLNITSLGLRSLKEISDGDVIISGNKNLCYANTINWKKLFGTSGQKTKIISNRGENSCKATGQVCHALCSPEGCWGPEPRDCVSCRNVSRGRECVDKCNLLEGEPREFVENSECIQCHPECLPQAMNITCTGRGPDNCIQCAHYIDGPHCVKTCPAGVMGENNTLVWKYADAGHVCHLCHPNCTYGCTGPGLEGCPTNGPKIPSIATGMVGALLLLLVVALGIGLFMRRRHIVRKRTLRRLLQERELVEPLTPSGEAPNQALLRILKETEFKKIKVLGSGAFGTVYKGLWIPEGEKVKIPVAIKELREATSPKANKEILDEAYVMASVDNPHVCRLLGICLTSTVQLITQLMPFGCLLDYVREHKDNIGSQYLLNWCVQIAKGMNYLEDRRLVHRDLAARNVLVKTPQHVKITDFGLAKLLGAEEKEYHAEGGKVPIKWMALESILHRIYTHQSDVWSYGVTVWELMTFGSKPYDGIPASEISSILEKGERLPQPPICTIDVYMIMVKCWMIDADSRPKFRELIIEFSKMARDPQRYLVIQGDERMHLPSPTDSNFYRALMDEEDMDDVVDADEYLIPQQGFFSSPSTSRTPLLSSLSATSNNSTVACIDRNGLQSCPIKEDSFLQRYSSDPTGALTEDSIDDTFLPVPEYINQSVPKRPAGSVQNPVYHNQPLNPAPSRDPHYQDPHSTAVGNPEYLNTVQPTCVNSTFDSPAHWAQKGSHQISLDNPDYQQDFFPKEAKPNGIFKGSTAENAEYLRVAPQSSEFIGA
Method: Purification of Epidermal Growth Factor Receptor Tyrosine Kinase Human EGF receptor tyrosine kinase was isolated from A431 human epidermoid carcinoma cells which overexpress EGF receptor by the following methods. Cells were grown in roller bottles in 50% Delbuco's Modified Eagle and 50% HAM F-12 nutrient media (Gibco) containing 10% fetal calf serum. Approximately 10^9 cells were lysed in two volumes of buffer containing 20 mM 2-(4N-[2-hydroxyethyl]piperazin-1-yl)ethanesulfonic acid (hepes), pH 7.4, 5 mM ethylene glycol bis(2-aminoethyl ether) N,N,N′,N′-tetraacetic acid, 1% Triton X-1OO, 10% glycerol. 0.1 mM sodium orthovanadate, 5 mM sodium fluoride, 4 mM pyrophosphate, 4 mM benzamide, 1 mM dithiothreitol, 80 μg/mL aprotinin, 40 μg/mL leupeptin and 1 mM phenylmethylsulfonyl fluoride. After centrifugation at 25,000×g for 10 minutes, the supernatant was equilibrated for 2 h at […], with 10 mL of wheat germ agglutinin sepharose that was previously equilibrated with 50 mM Hepes, 10% glycerol, 0.1% Triton X-100 and 150 mM NaCl, pH 7.5, (equilibration buffer). Contaminating proteins were washed from the resin with 1M NaCl in equilibration buffer, and the enzyme was eluted with 0.5M N-acetyl-1-D-glucosamine in equilibration buffer, followed by 1 mM urea. The enzyme was eluted with 0.1 mg/ml EGF.
Determination of IC50 Values for Wt EGFR
Dilute all compounds to 500 μM stock solutions in 100% DMSO and make a serial of 4-fold dilution for 10 does. “Max” and “Min” control contain 100% DMSO. “Max” stands for […], “Min” stands for low control without compounds. Transfer 10 μl of compounds to 90 μl of Ix kinase base buffer to make intermediate dilution. Transfer 5 μl of intermediate dilution compounds to the 384-well assay plate, then 10 μl 2.5× enzyme buffer containing (20 nM EGFR, 5 mM DTT, 1× kinase base buffer) were added to assay plate. […] Incubate at RT for 1 hr and 25 μl stop buffer to end up reaction. Collect conversion data from Caliper and conversion data from Caliper program. Fit the data in XLfit to obtain IC50 values.

[10] = biological target: EGFR_T790M/L858R (Homo sapiens, UniProt P00533, L858R/T790M); assay: Enzyme assay, IC50 for double-mutant EGFR (EGFR_T790M/L858R) (Caliper); assay type: biochemical; conditions: enzyme phosphorylation assay; read-out: EGFR_L858R/T790 IC50
EGFR_T790M/L858R, sequence (P00533 25-1210 T790M/L858R): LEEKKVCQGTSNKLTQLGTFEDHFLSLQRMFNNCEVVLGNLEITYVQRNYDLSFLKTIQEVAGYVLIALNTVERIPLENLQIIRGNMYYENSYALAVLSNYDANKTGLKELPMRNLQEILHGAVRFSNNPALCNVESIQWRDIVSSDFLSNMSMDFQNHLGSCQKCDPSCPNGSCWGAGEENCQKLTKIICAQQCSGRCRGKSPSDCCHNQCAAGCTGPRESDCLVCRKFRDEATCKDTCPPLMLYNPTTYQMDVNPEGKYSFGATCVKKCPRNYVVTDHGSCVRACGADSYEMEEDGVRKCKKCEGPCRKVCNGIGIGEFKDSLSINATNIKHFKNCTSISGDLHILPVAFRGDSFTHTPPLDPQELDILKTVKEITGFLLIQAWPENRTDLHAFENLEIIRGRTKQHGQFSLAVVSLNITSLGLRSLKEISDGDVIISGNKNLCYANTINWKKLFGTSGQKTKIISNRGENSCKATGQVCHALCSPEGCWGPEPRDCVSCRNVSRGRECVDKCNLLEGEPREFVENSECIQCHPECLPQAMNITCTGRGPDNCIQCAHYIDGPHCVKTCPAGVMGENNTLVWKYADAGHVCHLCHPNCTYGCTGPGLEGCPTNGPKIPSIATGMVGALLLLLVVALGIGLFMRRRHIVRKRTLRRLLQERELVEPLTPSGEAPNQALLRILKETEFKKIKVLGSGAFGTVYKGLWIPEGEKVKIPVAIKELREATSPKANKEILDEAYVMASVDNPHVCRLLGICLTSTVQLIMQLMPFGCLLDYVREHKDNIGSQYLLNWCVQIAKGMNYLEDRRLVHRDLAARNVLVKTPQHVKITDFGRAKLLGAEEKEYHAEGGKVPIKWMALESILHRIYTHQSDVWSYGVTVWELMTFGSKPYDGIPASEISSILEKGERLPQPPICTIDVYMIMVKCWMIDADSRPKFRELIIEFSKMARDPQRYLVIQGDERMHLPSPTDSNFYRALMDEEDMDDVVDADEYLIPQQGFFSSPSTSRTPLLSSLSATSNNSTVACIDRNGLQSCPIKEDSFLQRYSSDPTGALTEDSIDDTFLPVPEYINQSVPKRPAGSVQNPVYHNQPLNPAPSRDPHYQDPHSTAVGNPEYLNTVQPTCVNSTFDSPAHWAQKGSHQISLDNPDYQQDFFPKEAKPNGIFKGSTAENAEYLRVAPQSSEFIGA
Method: as §8
Determination of IC50 Values for Double-Mutant EGFR (EGFR_T790M/L858R)
Dilute all compounds to 500 μM stock solutions in 100% DMSO and make a serial of 4-fold dilution for 10 does. “Max” and “Min” control contain 100% DMSO. “Max” stands for […], “Min” stands for low control without compounds. Transfer 10 μl of compounds to 90 μl of 1× kinase base buffer to make intermediate dilution. […] Incubate at RT for 1 hr and 25 μl stop buffer to end up reaction. Collect conversion data from Caliper and conversion data from Caliper program. Fit the data in XLfit to obtain IC50 values.

Row | Structure (SMILES) | IC50 [1] [nM] | IC50 ([2]; Homo sapiens, NCI-H1975, 2 h, read-out: H1975 IC50 (nM), cellular EGFR autophosphorylation, 2 h treatment, ELISA) [nM] | IC50 ([2]; read-out: H1975 IC50, cellular EGFR autophosphorylation, 2 h treatment, ELISA) [nM] | IC50 [3] | IC50 [4] [nM] | IC50 [5] [nM] | IC50 ([5]; Homo sapiens, PC-9, 2 h) [nM] | IC50 [6] | IC50 [7] [nM] | IC50 [8] [nM] | IC50 [9] [nM] | IC50 [10] [nM]
1 | C=CC(=O)Nc1cc(Nc2nccc(-c3cn(C)c4ccccc34)n2)c(OC)cc1N(C)CCN(C)C [AZD-9291] | […] | 22.7 | 11.6 | […] | 2860 | 7.31 | 12.1 | 249 nM and 321 nM | 8.4 |  |  | 
2 | C=CC(=O)Nc1cc(Nc2nccc(-n3ccc4ccccc43)n2)c(OC)cc1N(C)CCN(C)C [Example 1] | 3.1 |  |  |  | 3570 |  |  |  | 6.8 | 2.4 | 4.1 | 0.7
3 | C=CC(=O)Nc1cc(Nc2nccc(-n3cc(C)c4ccccc43)n2)c(OC)cc1N(C)CCN(C)C [Example 2, N-(2-(N-(2-(N,N-Dimethylamino)ethyl)-N-methylamino)-4-methoxy-5-(4-(3-methylindol-1-yl)pyrimidin-2-ylamino)phenyl) propenamide] | 7.5 |  |  |  | 5030 |  |  |  | 12.3 | 3.1 | 7.1 | 1.3
4 | C=CC(=O)Nc1cc(Nc2nccc(-n3cc(Cl)c4ccccc43)n2)c(OC)cc1N(C)CCN(C)C [Example 3, N-(2-(N,N-(2-(N,N-Dimethylamino)ethyl)-N-methylamino)-4-methoxy-5-(4-(3-chloroindol-1-yl)pyrimidin-2-ylamino)phenyl) propenamide] | 17.9 |  |  |  | 2810 |  |  |  | 23.3 | 5.3 | 8.4 | 1.5
5 | C=CC(=O)Nc1cc(Nc2nccc(-n3cc(C#N)c4ccccc43)n2)c(OC)cc1N(C)CCN(C)C [Example 4, N-(2-(N-(2-(N,N-Dimethylamino)ethyl)-N-methylamino)-4-methoxy-5-(4-(3-cyanoindol-1-yl)pyrimidin-2-ylamino)phenyl) propenamide] | 18.8 |  |  |  | 2890 |  |  |  | 25.9 | 2.6 | 3.8 | 0.84
6 | C=CC(=O)Nc1cc(Nc2nccc(-c3cn(C)c4cccc(C)c34)n2)c(OC)cc1N(C)CCN(C)C [Example 5, N-(2-(N-(2-(N,N-Dimethylamino)ethyl)-N-methylamino)-4-methoxy-5-(4-(1 N,4-dimethylindol-3-yl)pyrimidin-2-ylamino)phenyl)propenamide] |  |  |  |  |  |  |  |  |  | 8.2 | 31 | 2.7
7 | C=CC(=O)Nc1cc(Nc2nccc(-c3cn(C)c4cccc(Cl)c34)n2)c(OC)cc1N(C)CCN(C)C [Example 6, N-(2-(N-(2-(N,N-Dimethylamino)ethyl)-N-methylamino)-4-methoxy-5-(4-(4-chloro-1N-methylindol-3-yl)pyrimidin-2-ylamino)phenyl) propenamide] |  |  |  |  |  |  |  |  |  | 9.2 | 44 | 7
8 | C=CC(=O)Nc1cc(Nc2nccc(-n3cc(C(N)=O)c4ccccc43)n2)c(OC)cc1N(C)CCN(C)C [Example 7, N-(2-(N-(2-(N,N-Dimethylamino)ethyl)-N-methylamino)-4-methoxy-5-(4-(3-carboxamidoindol-1-yl)pyrimidin-2-ylamino)phenyl) propenamide] | 1.7 |  |  |  | 2630 |  |  |  | 1.6 | 0.85 | 1.1 | 1.2
